Experiment: gradient 5% acetonitrile 3 min, to 50% in 2 min, to 85% in 15 min, held 3 min, 100 µL/min
Conditions: column: Zorbax Extend-C18 2.1 x 50 mm; eluents: water / acetonitrile, 0.1% formic acid
In short: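 Mixtures of ~100 pure standards were chromatographed on a Zorbax Extend-C18 column (2.1 × 50 mm, 1.8 μm) at 100 μL/min using water and acetonitrile, each with 0.1% formic acid. Detection used a quadrupole time-of-flight mass spectrometer in positive and negative ionization mode, and data collection spanned 3 months. Retention time was obtained from adduct peaks picked computationally and each checked manually.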

| RP-LC retention time | SMILES |
| --- | --- |
| 899 s | COCc1cnc2c(c1SCc1ccccc1F)c(=O)n(C)c(=O)n2C |
| 804 s | O=C([C@@H]1C[C@H](F)CN1C(=O)Nc1cccc(C(F)(F)F)c1)N1CCCCC1 |
| 670 s | COCc1nnc(NC(=O)C2CCN(C(=O)c3ccccc3Cl)CC2)s1 |
| 713 s | CC1CCN(C(=O)CN(C)S(=O)(=O)c2ccc3c(c2)CCCC(=O)N3)CC1 |
| 578 s | CN(C)c1cc(OC2CCN(C(=O)c3cnn4cccnc34)C2)ncn1 (stereo not drawn) |
| 865 s | COCCCNC(=O)C1(C)Cn2nc(-c3ccccc3)cc2C(=O)N1Cc1ccc(OC)cc1 (stereo not drawn) |
| 617 s | O=C1C[C@@H](c2ccc(O)c(O)c2)Oc2c1ccc(O[C@@H]1O[C@H](CO)[C@@H](O)[C@H](O)[C@H]1O)c2O |
| 714 s | O=S(=O)(c1ccc2c(c1)CCC2)N1CCCn2nc(-c3cccnc3)cc2C1 |
| 764 s | CCN1C(=O)c2c(C(=O)NCc3ccc(F)cc3)ncn2CC1(C)C(=O)NC1CCCC1 (stereo not drawn) |
| 817 s | CCn1cc(S(=O)(=O)Nc2cccc(F)c2)c2cccnc21 |
| 715 s | Cc1ccc(CNC(=O)C2CCCN(c3cnn(C)c(=O)c3)C2)cc1 (stereo not drawn) |
| 664 s | Cc1cc(N2CCN(c3ccccn3)CC2)n2nc(C)c(-c3ccc(F)cc3)c2n1 |
| 872 s | O=C(C1=CN(c2cccc(F)c2)c2cc(F)ccc2S1(=O)=O)N1CCCCC1 |
| 592 s | CC(C)OCCCNCc1ccc2c(c1)n(C)c(=O)n2C |
| 902 s | CCOc1ccc(N2CCCCn3c2nc2c3c(=O)n(CC)c(=O)n2C)cc1 |
| 634 s | O=C(CN1C(=O)C(C(=O)N2CCCCC2)Sc2ccccc21)N1CCN(c2ccccn2)CC1 (stereo not drawn) |
| 661 s | O=C(Nc1ccc(F)cc1F)c1ncccn1 |
| 1020 s | CCc1ccc(NS(=O)(=O)c2ccc3c(c2)C(=O)N(CC)c2ncccc2O3)cc1 |
| 1150 s | Cc1cc(C)cc(-c2nnc(Cc3nc(-c4cccc(F)c4)no3)o2)c1 |
| 634 s | CC(=O)Nc1ccc(SCCCC(=O)Nc2ccc3c(c2)OCCO3)nn1 |
| 689 s | O=C(C1CCCC1)N1CCn2c(nnc2-c2ccccc2)C1 |
| 611 s | Cc1ccc(C)c(CN2C[C@@H]3C(=O)N(C)C(=O)[C@@H]3C2)c1 |

| RP-LC retention time | SMILES |
| --- | --- |
| 777 s | COc1cccc(CN2CCC3(CC2)C(OC)CN3c2cccc(F)c2)n1 (stereo not drawn) |
| 761 s | CCc1cc(=O)n(CC(=O)N2CCN(c3ccccc3F)CC2)c(N2CCOCC2)n1 |
| 1000 s | CCOC(=O)c1ccccc1NC(=O)Cn1nc2c(Oc3ccccc3)nccn2c1=O |
| 936 s | COc1ccc(-c2noc(C3CCCN3C(=O)COc3ccccc3)n2)cc1 (stereo not drawn) |
| 838 s | COc1ccc(S(=O)(=O)N2CCCC(C(=O)Nc3ccc4c(c3)OCO4)C2)cc1OC (stereo not drawn) |
| 603 s | CCN1CCN(c2ncc(N3CCC(C(=O)NCc4cccs4)CC3)cn2)CC1 |
| 903 s | CCn1cc(-c2nc(CC(=O)NCc3cccc(Cl)c3)cs2)c2cccnc21 |
| 809 s | O=C(NCc1cccs1)c1ccc(Cn2ccnc2)cc1 |
| 792 s | CSc1ccc(CNC(=O)CC2CCN(C(=O)c3[nH]c(C)cc3C)CC2)cc1 |
| 779 s | CCc1ccc(NC(=O)c2sc3nc(C)nc(N4CCN(c5ccccn5)CC4)c3c2C)cc1 |
| 773 s | COc1ccc(CNC(=O)Cn2nc(C(=O)N3CCCC3)c3ccccc32)cc1 |
| 698 s | CC(C)(C)C(=O)N1CCC(C(=O)N[C@@H]2CCCC[C@H]2NC(=O)c2ccc(F)cc2)CC1 |
| 927 s | Cn1cc(C2=CCN(S(=O)(=O)c3ccccc3)CC2)c2cccnc21 |
| 1420 s | CCOc1nc2ccccc2nc1N1CCCC(C(=O)Nc2ccc(Br)c(C)c2)C1 (stereo not drawn) |
| 1060 s | O=C1CCCc2nc(N3CCN(c4ccccc4F)CC3)ncc21 |
| 845 s | CCC(C)N(CC(=O)N1CCc2sccc2C1COc1ccccc1OC)C(=O)COC (stereo not drawn) |
| 808 s | COC(=O)c1c(NCc2cc(OC)ccc2OC)c2cccc(Cl)c2[nH]c1=O |
| 786 s | O=C(C1=CN(c2cc(F)cc(F)c2)c2ccccc2S1(=O)=O)N1CCCC1 |
| 683 s | Cc1ccc(C)c(-c2cc3c(=O)n(Cc4nc(-c5ccc6c(c5)OCO6)no4)ncn3n2)c1 |
| 602 s | O=C(c1cc(-c2cccs2)n(C2CCS(=O)(=O)C2)n1)N1CCN(c2ccccn2)CC1 (stereo not drawn) |
| 657 s | CS(=O)(=O)Nc1cccc(NC(=O)CN2CCN(c3ccc4c(c3)OCCO4)C2=O)c1 |
| 881 s | Cc1cc(-c2nnc(-c3ccco3)o2)c(C)n1CC(=O)NCc1ccc(F)cc1Cl |

| RP-LC retention time | SMILES |
| --- | --- |
| 714 s | CCc1noc(NC(C)=O)c1-c1ccc(OC)c(S(=O)(=O)N2CCC3(CC2)OCCO3)c1 |
| 932 s | CCc1ccc(CNC(=O)C2CC(=O)N(c3ccc4c(c3)CCN4C(C)=O)C2)cc1 (stereo not drawn) |
| 916 s | O=C(Nc1cc(-c2ccccn2)no1)c1cccc(C(F)(F)F)c1 |
| 1130 s | COc1ccc(Cl)cc1S(=O)(=O)N1CCC(c2noc(-c3ccccc3)n2)CC1 |
| 1080 s | COc1ccc(NC(=O)c2nc(C(C)C)oc2C)cc1Cl |
| 549 s | O=C(NC1CCN(Cc2ccccc2)CC1)c1ccccc1Cl |
| 517 s | Cc1cnc(CCNC(=O)Nc2ccc3c(c2)OCCO3)n1C1CCC1 |
| 783 s | CN1C(=O)CCc2cc(NS(=O)(=O)c3cccc(Cl)c3)ccc21 |
| 698 s | CCOC1CCN(C(=O)NC2CCCC2)CC1 |
| 1220 s | O=S(=O)(c1ccc2c(c1)CCC2)N1CCc2nc(-c3ccc(F)cc3)ncc2C1 |
| 618 s | Cc1c(N2CCC(C(=O)N3CCN(c4ccccn4)CC3)CC2)c(=O)n(C)c(=O)n1-c1ccccc1 |
| 1150 s | COc1ccccc1-c1nnc(-c2ccc(Cl)c(S(=O)(=O)N3CCCCCC3)c2)o1 |
| 607 s | O=C(c1ccc(-c2ccc(N3CCCCC3)nc2)cc1)N1CCOCC1 |
| 562 s | O=C(NCCN1CCCCC1)C1CCCN(c2cnc3nccnc3c2)C1 (stereo not drawn) |
| 710 s | CN1CCC(Nc2ncc3ncnc(Nc4ccc(F)c(Cl)c4)c3n2)CC1 |
| 825 s | COCCCN1C(=O)CSc2c(c3ccccc3n2C)C1C(=O)NCCCOC(C)C (stereo not drawn) |
| 818 s | O=C(c1cccs1)N1CCCCC1c1nc(-c2ccncc2)no1 (stereo not drawn) |
| 663 s | COc1ccccc1OCCNC(=O)[C@@]12CCCC[C@H]1N(C)C(=O)CC2 |
| 939 s | COC(=O)C1=CN(c2ccc(Br)cc2)c2cc(F)ccc2S1(=O)=O |
| 641 s | CC(=O)Nc1ccc(C(=O)NC2CCN(c3cc(-c4cccs4)[nH]n3)C2)cc1 (stereo not drawn) |
| 605 s | O=C(NCCCN1CCCC1=O)C1CCCN(c2ncnc3c2nc2n3CCCCC2)C1 (stereo not drawn) |
| 549 s | Cc1cc(NC(=O)COc2coc(CN3CCN(C(=O)c4ccco4)CC3)cc2=O)no1 |

| RP-LC retention time | SMILES |
| --- | --- |
| 906 s | Cc1cc(C)cc(NC(=O)CN2C(=O)CSc3ccc(C(=O)N(C)C)cc32)c1 |
| 760 s | Cc1nnc(-c2ccc3ccn(CC(=O)NCc4ccc(F)cc4)c3c2)o1 |
| 991 s | CCN1C(=O)COc2ccc(-c3noc(C4(c5ccccc5)CC4)n3)cc21 |
| 832 s | Cc1nn(CC(=O)N2CCC(Cc3ccccc3)CC2)c(=O)c2noc(C)c12 |
| 854 s | CCS(=O)(=O)c1nc2ccc(NS(=O)(=O)c3cc(F)ccc3F)cc2s1 |
| 832 s | O=C(Cn1cccc1-c1nnc(C2CCC2)o1)NCc1ccc(F)cc1 |
| 933 s | O=C(Cn1cnc2c(-c3ccc(Cl)cc3)csc2c1=O)NC1CCCC1 |
| 862 s | COc1ccc(NC(=O)c2ccc(-c3ccsc3)nc2)cc1 |
| 668 s | Cc1nc(-c2ccc(C(=O)NC3CC3)cc2)no1 |
| 603 s | O=C(NCCc1csc(C2CCN(C(=O)C3CCCO3)CC2)n1)C1CC1 (stereo not drawn) |
| 784 s | O=C(NC1CCCCC1)C1CCN(C(=O)c2ncn3c2COC(c2ccc(F)cc2)C3)CC1 (stereo not drawn) |
| 907 s | O=C1CC2(CCN(S(=O)(=O)c3ccc([N+](=O)[O-])cc3)CC2)Oc2ccccc21 |
| 1260 s | Cc1cccc(-n2c(=O)c3sccc3n(Cc3nc(-c4ccc(C(C)(C)C)cc4)no3)c2=O)c1 |
| 578 s | CCN1CCN(C(=O)C2Cc3cc(S(=O)(=O)N4CCOCC4)ccc3N2C(C)=O)CC1 (stereo not drawn) |
| 704 s | Cc1ccc(-c2nc3nc(C)cc(C)n3c2Nc2ccc3c(c2)OCCO3)cc1 |
| 642 s | O=C(c1cccs1)N1CCCCC1c1nncn1Cc1ccccc1 (stereo not drawn) |
| 1010 s | CCc1nc(-c2csc(S(=O)(=O)N3CCCC(C(=O)Nc4ccccc4C)C3)c2)no1 (stereo not drawn) |
| 735 s | CC(=O)Nc1nc(-c2ccc(S(=O)(=O)N3CCOCC3)cc2)cs1 |
| 684 s | CC1(CNC(=O)NCc2cccc(F)c2)CCOCC1 |

| SMILES | RP-LC retention time |
| --- | --- |
| O=C(CC1CCCC1)N1[C@H]2CC[C@@H]1c1cnc(-c3ccccc3)nc1C2 | 1000 s |
| CN1C2CC(OC(=O)C(CO)c3ccccc3)CC1C1OC12 (stereo not drawn) | 640 s |
| CCN(CC)C(=O)c1ccc2c(c1)N(CC(=O)NC1CCCC1)C(=O)C1CCCCN21 (stereo not drawn) | 789 s |

— the METLIN SMRT retention time set (Domingo-Almenara et al. 2019)
